# Test results published in US20190194148A1, “TETRAZOLE-CONTAINING 1,2-CYCLOPROPANE-CARBOXAMIDES” (Bayer Pharma Aktiengesellschaft, priority 2017, published 2019).
# Target: T1, human B1 receptor (Homo sapiens, UniProt P46663)
# T1 construct: host or cells: CHO-K1
# T1 sequence (P46663 1-353): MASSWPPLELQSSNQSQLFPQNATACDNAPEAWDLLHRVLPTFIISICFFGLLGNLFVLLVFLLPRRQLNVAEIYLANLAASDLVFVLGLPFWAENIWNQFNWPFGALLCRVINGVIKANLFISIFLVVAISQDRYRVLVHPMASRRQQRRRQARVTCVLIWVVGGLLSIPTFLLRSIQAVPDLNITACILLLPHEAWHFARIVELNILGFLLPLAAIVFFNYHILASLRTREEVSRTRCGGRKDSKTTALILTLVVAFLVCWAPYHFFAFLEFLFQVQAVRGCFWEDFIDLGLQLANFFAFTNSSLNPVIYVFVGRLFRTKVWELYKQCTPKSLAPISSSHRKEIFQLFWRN
# Assay: Calcium flux assay (FLIPR) with recombinant CHO-K1 cells expressing human B1 receptor
# Type: cell-based
# Settings: absence of 0.1% BSA in assay buffer, read-out: hB1 free IC50
# Experimental: The potency to inhibit the Bradykinin B1 receptors was determined for the example compounds of this invention in a cell-based fluorescent calcium-mobilisation assay. The assay measures the ability of example compounds to inhibit Bradykinin B1 receptor agonist-induced increase of intracellular free Ca^2+ in the cell line expressing B1 receptor. Specifically, calcium indicator-loaded cells are pre-incubated in the absence or presence of different concentrations of example compounds followed by the stimulation with a selective B1 receptor agonist peptide. The change of the intracellular Ca^2+ concentration is monitored with a fluorescent plate reader FLIPR (Molecular Devices).
# Calcium Flux Assays (FLIPR) with Cells Expressing Bradykinin B1 Receptor Calcium Flux Assay (FLIPR) with Recombinant Cells for Bradykinin B1 Receptor Antagonist, Either in the Presence (hB1 IC50) or Absence (hB1 free IC50) of 0.1% Bovine Serum Albumin (BSA) in Assay Buffer
# CHO-K1 cell line expressing human B1 receptor was purchased from Euroscreen (Gosselies, Belgium, with reference name hB1-D1). The cells were grown in Nutrient Mixture Ham's F12 (Sigma) containing 10% Foetal bovine serum (Sigma) and 400 μg/mL G418 (Sigma), 5 μg/mL puromycin (Sigma).
# For the calcium flux assay, 80% confluent cells were detached from the culture vessels with Versene (Gibco), and seeded into 384-well plates (Cell binding Surface; Corning, N.Y.; #3683) at a density of 15,000 cells per well. Cells were seeded in a volume of 50 μL in medium without antibiotics and incubated overnight in a humidified atmosphere with 5% CO2 at 37° C. […] The calcium indicator loaded cells were incubated at 37° C. for 2 hrs. Extracellular dye was then removed and each well was filled with 45 μL of assay buffer. Cell plates were kept in dark until used. Example compounds were assayed at 8 concentrations in triplicate. Serial 10-fold dilutions in 100% DMSO were made at a 100-times higher concentration than the final concentration, and then diluted 1:10 in assay buffer. 5 μL of each diluted compound was added to the well of cell plates (yielding final concentration with 1% DMSO), and incubated for 30 min at 28° C. before the addition of B1 receptor agonist on the FLIPR instrument.
# Agonist plates contained the agonist Lys-(Des-Arg)-Bradykinin (Bachem, Brackley) at 3.5×EC90 in assay buffer with 1% DMSO. The addition of agonist 20 μl per well to the assay plate was carried out on the FLIPR instrument while continuously monitoring Ca^2+-dependent fluorescence at 538 nm. A peptide antagonist Lys-(Des-Arg-Leu)-Bradykinin (Bachem, Brackley) at 20 μM was used to determine the full inhibition as control.
# Peak fluorescence was used to determine the response to agonist obtained at each concentration of example compound by the following equation:
# % Response=100*(RFU(example compound)−RFU(control)/(RFU(DMSO)−RFU(control)
# Control=full inhibition by the peptide antagonist Lys-(Des-Arg-Leu)-Bradykinin at 20 μM
# The response values were plotted against the logarithm of the compound concentrations. The compounds were tested in triplicates per plate and mean values were plotted in Excel XLfit to determine IC50 values, percentage of maximal inhibition and the Hill slopes.
row,Compound,IC50 [nM]
1,"COc1ccc(-c2ccc(NC(=O)C3CC3c3ccccc3C)cc2-c2nnn[nH]2)cc1OC (racemic) [Example 4, N-[3′,4′-dimethoxy-2-(1H-tetrazol-5-yl)biphenyl-4-yl]-2-(2-methylphenyl)cyclopro-panecarboxamide]",12
2,"COc1ccc(-c2ccc(NC(=O)C3CC3c3ccccc3OC(F)(F)F)cc2-c2nnn[nH]2)cc1OC (racemic) [Example 6, N-[3′,4′-dimethoxy-2-(1H-tetrazol-5-yl)biphenyl-4-yl]-2-[2-(trifluoromethoxy)phen-yl]cyclopropane-carboxamide]",6
3,"COc1ccc(-c2ccc(NC(=O)C3CC3c3cccc(C)c3)cc2-c2nnn[nH]2)cc1OC (racemic) [Example 7, N-[3′,4′-dimethoxy-2-(1H-tetrazol-5-yl)biphenyl-4-yl]-2-(3-methylphenyl)cyclopro-panecarboxamide]",6
4,"CCOc1ncc(-c2ccc(NC(=O)C3CC3c3ccc(Cl)cc3)cc2-c2nnn[nH]2)cn1 (racemic) [Example 27, 2-(4-Chlorophenyl)-N-[4-(2-ethoxypyrimidin-5-yl)-3-(1H-tetrazol-5-yl)phenyl]cyclopropane-carboxamide]",13
5,"O=C(Nc1ccc(-c2ccc(C(F)(F)F)nc2)c(-c2nnn[nH]2)c1)C1CC1c1ccccc1 (racemic) [Example 28, 2-Phenyl-N-{3-(1H-tetrazol-5-yl)-4-[6-(trifluoromethyl)pyridin-3-yl]phenyl}cyclopro-panecarboxamide]",509
6,"CC1(C(=O)Nc2ccc(-c3ccc(C(F)(F)F)nc3)c(-c3nnn[nH]3)c2)CC1c1ccccc1 (racemic) [Example 29, 1-Methyl-2-phenyl-N-{3-(1H-tetrazol-5-yl)-4-[6-(trifluoromethyl)pyridin-3-yl]phenyl}cyclopro-panecarboxamide]",526
7,"O=C(Nc1ccc(-c2ccc(C(F)(F)F)nc2)c(-c2nnn[nH]2)c1)C1CC1C1CCCCC1 (racemic) [Example 30, 2-Cyclohexyl-N-{3-(1H-tetrazol-5-yl)-4-[6-(trifluoromethyl)pyridin-3-yl]phenyl}cyclopro-panecarboxamide]",514

# Same assay, conditions: presence of 0.1% BSA in assay buffer, read-out: hB1 IC50
row,Compound,IC50 [nM]
1,"COc1ccc(-c2ccc(NC(=O)C3CC3c3ccccc3)cc2-c2nnn[nH]2)cc1OC (racemic) [Example 1, N[3′,4′-dimethoxy-2-(1H-tetrazol-5-yl)biphenyl-4-yl]-2-phenylcyclopropanecarboxamide]",209
2,"COc1ccc(-c2ccc(NC(=O)C3CC3c3cnn(C)c3)cc2-c2nnn[nH]2)cc1OC (racemic) [Example 2, N-[3′,4′-dimethoxy-2-(1H-tetrazol-5-yl)biphenyl-4-yl]-2-(1-methyl-1H-pyrazol-4-yl)cyclopropanecarbox-amide]",2120
3,"COc1ccc(-c2ccc(NC(=O)C3CC3c3ccccc3F)cc2-c2nnn[nH]2)cc1OC (racemic) [Example 3, N-[3′,4′-dimethoxy-2-(1H-tetrazol-5-yl)biphenyl-4-yl]-2-(2-fluorophenyl)cyclopro-panecarboxamide]",101
4,"COc1ccc(-c2ccc(NC(=O)C3CC3c3ccccc3C)cc2-c2nnn[nH]2)cc1OC (racemic) [Example 4, N-[3′,4′-dimethoxy-2-(1H-tetrazol-5-yl)biphenyl-4-yl]-2-(2-methylphenyl)cyclopro-panecarboxamide]",27
5,"CCc1ccccc1C1CC1C(=O)Nc1ccc(-c2ccc(OC)c(OC)c2)c(-c2nnn[nH]2)c1 (racemic) [Example 5, N-[3′,4′-dimethoxy-2-(1H-tetrazol-5-yl)biphenyl-4-yl]-2-(2-ethylphenyl)cyclopro-panecarboxamide]",16
6,"COc1ccc(-c2ccc(NC(=O)C3CC3c3ccccc3OC(F)(F)F)cc2-c2nnn[nH]2)cc1OC (racemic) [Example 6, N-[3′,4′-dimethoxy-2-(1H-tetrazol-5-yl)biphenyl-4-yl]-2-[2-(trifluoromethoxy)phen-yl]cyclopropane-carboxamide]",20
7,"COc1ccc(-c2ccc(NC(=O)C3CC3c3cccc(C)c3)cc2-c2nnn[nH]2)cc1OC (racemic) [Example 7, N-[3′,4′-dimethoxy-2-(1H-tetrazol-5-yl)biphenyl-4-yl]-2-(3-methylphenyl)cyclopro-panecarboxamide]",19
8,"COc1ccc(-c2ccc(NC(=O)C3CC3c3ccc(Cl)cc3)cc2-c2nnn[nH]2)cc1OC (racemic) [Example 9, 2-(4-chlorophenyl)-N-[3′,4′-dimethoxy-2-(1H-tetrazol-5-yl)biphenyl-4-yl]cyclo-propanecarboxamide]",19
9,"COc1ccc(-c2ccc(NC(=O)C3CC3c3ccc(C)cc3)cc2-c2nnn[nH]2)cc1OC (racemic) [Example 10, N-[3′,4′-dimethoxy-2-(1H-tetrazol-5-yl)biphenyl-4-yl]-2-(4-methylphenyl)cyclopro-panecarboxamide]",33
10,"COc1ccc(-c2ccc(NC(=O)C3CC3c3ccc(F)cc3)cc2-c2nnn[nH]2)cc1OC (racemic) [Example 11, N-[3′,4′-dimethoxy-2-(1H-tetrazol-5-yl)biphenyl-4-yl]-2-(4-fluorophenyl)cyclopro-panecarboxamide]",95
11,"CCc1ccc(C2CC2C(=O)Nc2ccc(-c3ccc(OC)c(OC)c3)c(-c3nnn[nH]3)c2)cc1 (racemic) [Example 12, N-[3′,4′-dimethoxy-2-(1H-tetrazol-5-yl)biphenyl-4-yl]-2-(4-ethylphenyl)cyclopro-panecarboxamide]",341
12,"COc1ccc(C2CC2C(=O)Nc2ccc(-c3ccc(OC)c(OC)c3)c(-c3nnn[nH]3)c2)cc1 (racemic) [Example 13, N-[3′,4′-dimethoxy-2-(1H-tetrazol-5-yl)biphenyl-4-yl]-2-(4-methoxyphenyl)cyclo-propanecarboxamide]",1050
13,"CCOc1ccc(-c2ccc(NC(=O)C3CC3c3ccc(F)cc3)cc2-c2nnn[nH]2)cn1 (racemic) [Example 16, N-[4-(6-ethoxypyridin-3-yl)-3-(1H-tetrazol-5-yl)phenyl]-2-(4-fluorophenyl)cyclopro-panecarboxamide]",15
14,"CCOc1ccc(-c2ccc(NC(=O)C3CC3C3CCCCC3)cc2-c2nnn[nH]2)cn1 (racemic) [Example 20, 2-Cyclohexyl-N-[4-(6-ethoxypyridin-3-yl)-3-(1H-tetrazol-5-yl)phenyl]cyclopro-panecarboxamide]",389
15,"CCOc1cncc(-c2ccc(NC(=O)C3CC3c3ccc(Cl)cc3)cc2-c2nnn[nH]2)c1 (racemic) [Example 22, 2-(4-Chlorophenyl)-N-[4-(5-ethoxypyridin-3-yl)-3-(1H-tetrazol-5-yl)phenyl]cyclopro-panecarboxamide]",603
16,"CCOc1cncc(-c2ccc(NC(=O)C3CC3c3cccc(C)c3)cc2-c2nnn[nH]2)c1 (racemic) [Example 23, N-[4-(5-Ethoxypyridin-3-yl)-3-(1H-tetrazol-5-yl)phenyl]-2-(3-methylphenyl)cyclopro-panecarboxamide]",303
17,"COc1cncc(-c2ccc(NC(=O)C3CC3C3CCCCC3)cc2-c2nnn[nH]2)c1 (racemic) [Example 24, 2-Cyclohexyl-N-[4-(5-methoxypyridin-3-yl)-3-(1H-tetrazol-5-yl)phenyl]cyclopro-panecarboxamide]",310
18,"COc1cncc(-c2ccc(NC(=O)C3CC3c3cccc(C)c3)cc2-c2nnn[nH]2)c1 (racemic) [Example 25, N-[4-(5-Methoxypyridin-3-yl)-3-(1H-tetrazol-5-yl)phenyl]-2-(3-methylphenyl)cyclopro-panecarboxamide]",520
19,"COc1cncc(-c2ccc(NC(=O)C3CC3c3ccc(Cl)cc3)cc2-c2nnn[nH]2)c1 (racemic) [Example 26, 2-(4-Chlorophenyl)-N-[4-(5-methoxypyridin-3-yl)-3-(1H-tetrazol-5-yl)phenyl]cyclopro-panecarboxamide]",372
20,"O=C(Nc1ccc(-c2ccc(C(F)(F)F)nc2)c(-c2nnn[nH]2)c1)C1CC1C1CCCCC1 (racemic) [Example 30, 2-Cyclohexyl-N-{3-(1H-tetrazol-5-yl)-4-[6-(trifluoromethyl)pyridin-3-yl]phenyl}cyclopro-panecarboxamide]",3300
21,"CCOc1ccc(-c2ccc(NC(=O)C3CC3C3CCCCC3)cc2-c2nnn[nH]2)cc1OC (racemic) [Example 31, 2-cyclohexyl-N-[4′-ethoxy-3′-methoxy-2-(1H-tetrazol-5-yl)biphenyl-4-yl]cyclopropane-carboxamide]",27
22,"COCc1ccc(-c2ccc(NC(=O)C3CC3c3ccc(Cl)cc3)cc2-c2nnn[nH]2)cc1C (racemic) [Example 32, 2-(4-chlorophenyl)-N-[4′-(methoxymethyl)-3′-methyl-2-(1H-tetrazol-5-yl)biphenyl-4-yl]cyclopro-panecarboxamide]",22
